Legend:
Format in all cases: binding
[1] = target: T1, panel of 442 kinases (Homo sapiens, UniProt P51955); details: Compound Concentration 10 µM
T1 construct: purchased KINOMEscan
T1 sequence (P51955 1-445): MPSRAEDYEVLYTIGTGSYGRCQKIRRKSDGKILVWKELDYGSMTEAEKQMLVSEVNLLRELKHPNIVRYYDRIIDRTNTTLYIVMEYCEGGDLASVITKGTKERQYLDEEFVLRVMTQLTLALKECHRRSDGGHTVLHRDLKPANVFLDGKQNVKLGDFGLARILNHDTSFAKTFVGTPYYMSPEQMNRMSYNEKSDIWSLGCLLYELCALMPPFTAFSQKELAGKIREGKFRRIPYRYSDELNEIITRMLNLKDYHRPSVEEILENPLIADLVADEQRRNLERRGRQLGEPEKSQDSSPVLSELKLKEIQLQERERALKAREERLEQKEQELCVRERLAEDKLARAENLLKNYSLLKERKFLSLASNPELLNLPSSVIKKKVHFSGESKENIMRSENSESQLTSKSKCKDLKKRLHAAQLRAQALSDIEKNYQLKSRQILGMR
Excerpt: (§1) We assessed the selectivity of members of this scaffold using the KINOMEscan methodology across a near comprehensive panel of 442 kinases [[18,27]].

[2] = target: T2, panel of 442 kinases (Homo sapiens, UniProt P36897); details: kinase TGFBR1; compound concentration 10 µM
T2 construct: purchased KINOMEscan
T2 sequence (P36897 34-503): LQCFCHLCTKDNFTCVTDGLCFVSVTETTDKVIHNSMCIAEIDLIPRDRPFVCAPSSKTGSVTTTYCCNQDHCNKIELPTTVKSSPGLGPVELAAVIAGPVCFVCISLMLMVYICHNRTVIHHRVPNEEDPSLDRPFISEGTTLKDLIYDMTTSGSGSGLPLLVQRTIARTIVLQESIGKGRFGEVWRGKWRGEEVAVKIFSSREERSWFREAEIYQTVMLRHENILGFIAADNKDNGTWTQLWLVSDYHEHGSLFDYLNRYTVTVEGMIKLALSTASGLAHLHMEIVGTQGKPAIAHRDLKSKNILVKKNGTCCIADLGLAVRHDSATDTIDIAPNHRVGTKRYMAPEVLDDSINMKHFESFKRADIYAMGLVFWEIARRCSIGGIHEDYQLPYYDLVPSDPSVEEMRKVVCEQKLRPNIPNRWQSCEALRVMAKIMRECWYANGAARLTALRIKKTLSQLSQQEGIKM
Excerpt: as §1

[3] = target: T3, panel of 442 kinases (Homo sapiens, UniProt P35590); details: kinase TIE1; compound concentration 10 µM
T3 construct: purchased KINOMEscan
T3 sequence (P35590 22-1138): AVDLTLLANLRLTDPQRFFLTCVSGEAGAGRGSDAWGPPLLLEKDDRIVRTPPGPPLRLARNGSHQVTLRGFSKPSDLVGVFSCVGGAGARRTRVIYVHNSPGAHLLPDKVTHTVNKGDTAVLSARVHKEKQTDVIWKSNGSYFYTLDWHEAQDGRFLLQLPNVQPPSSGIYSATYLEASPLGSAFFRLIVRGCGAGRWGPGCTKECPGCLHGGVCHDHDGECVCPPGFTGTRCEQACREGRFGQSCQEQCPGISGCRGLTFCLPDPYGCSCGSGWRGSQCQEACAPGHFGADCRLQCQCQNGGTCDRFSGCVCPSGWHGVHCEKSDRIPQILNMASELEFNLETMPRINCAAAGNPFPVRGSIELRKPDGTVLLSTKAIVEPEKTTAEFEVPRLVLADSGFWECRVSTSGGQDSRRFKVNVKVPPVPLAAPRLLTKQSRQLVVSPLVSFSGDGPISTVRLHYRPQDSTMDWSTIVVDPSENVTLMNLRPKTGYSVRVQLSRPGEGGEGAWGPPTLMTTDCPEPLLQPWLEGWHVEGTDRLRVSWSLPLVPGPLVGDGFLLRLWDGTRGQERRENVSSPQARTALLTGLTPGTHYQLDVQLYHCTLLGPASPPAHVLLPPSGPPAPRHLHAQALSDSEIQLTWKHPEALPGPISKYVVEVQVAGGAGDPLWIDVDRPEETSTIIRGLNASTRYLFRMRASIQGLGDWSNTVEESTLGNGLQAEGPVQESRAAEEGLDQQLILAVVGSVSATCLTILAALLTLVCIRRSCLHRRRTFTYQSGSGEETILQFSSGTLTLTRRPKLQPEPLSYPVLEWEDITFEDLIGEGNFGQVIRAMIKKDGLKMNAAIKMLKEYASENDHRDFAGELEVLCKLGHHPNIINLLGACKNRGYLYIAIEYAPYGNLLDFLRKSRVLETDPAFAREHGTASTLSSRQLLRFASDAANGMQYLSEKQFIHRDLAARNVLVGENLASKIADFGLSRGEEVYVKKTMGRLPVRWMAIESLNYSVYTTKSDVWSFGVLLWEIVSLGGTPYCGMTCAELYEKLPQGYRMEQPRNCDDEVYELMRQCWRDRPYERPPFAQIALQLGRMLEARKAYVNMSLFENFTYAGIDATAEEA
Excerpt: as §1

SMILES | KINOMEscan: NEK2 [1] | % Ctrl, TGFBR1 [2] [% Ctrl] | % Ctrl, TIE1 [3] [% Ctrl]
COc1cc(C(=O)N2CCC(N3CCN(C)CC3)CC2)ccc1Nc1ncc2c(n1)N(C)c1ccccc1C(=O)N2C [15 (LRRK2-IN-1)] | 100 | 100 | 100
COc1cc(C(=O)N2CCC(N3CCN(C)CC3)CC2)ccc1Nc1ncc2c(n1)N1CCc3cccc(c31)C(=O)N2C [Compound 24] | 62 | 100 | 70
COc1cc(C(=O)N2CCC(N3CCN(C)CC3)CC2)ccc1Nc1ncc2c(n1)N(C1CCCC1)c1ccccc1C(=O)N2C [Compound 25, 11-cyclopentyl-2-((2-methoxy-4-(4-(4-methylpiperazin-1-yl)piperidine-1-carbonyl)phenyl)amino)-5-methyl-5H-benzo[e]pyrimido[5,4-b][1,4]diazepin-6(11H)-one] | 88 | 98 | 100
CCOc1cc(C(=O)N2CCC(N3CCN(C)CC3)CC2)ccc1Nc1ncc2c(n1)N(C1CCCC1)c1ccccc1C(=O)N2C [Compound 26] | 86 | 100 | 100

Source: PMC3914206
